The record followed here is patent publication US10407445B2, “Hepatitis C virus inhibitors” (ENANTA PHARMACEUTICALS, INC., priority 2013, dated 2019).

The nature of the first series: IV and PO single dose pharmacokinetic studies in SD rats. It counts as in vivo. The settings on record: Sprague-Dawley, rat, plasma, comparative table, male SD rats, oral 20 mg/kg vs IV. Here is the method: The pharmacokinetics of selected compounds was characterized in male Sprague-Dawley (SD) rats (250-300 g). […] The intravenous (IV) dosing vehicle was 5% ethanol and 95% of 20% 2-hydroxypropyl β-cyclodextrin in water. The oral dosing vehicle was 33% of Microemulsion Preconcentrate #5 (a lipid based self-emulsifying drug delivery system, SEDDS) and 67% of 50 mM citrate buffer (final pH 3.6).
Serial blood samples (approximately 0.3 mL each) were collected from jugular vein or other suitable vein at specified time points. For the IV dosing group, the blood samples were collected predose and at 0.08, 0.25, 0.50, 1, 3, 6, 8, and 24 hours after the start of dosing. For the oral group, the blood samples were collected predose and at 0.08, 0.25, 0.50, 1, 3, 6, 8, and 24 hours after dosing. The blood samples were collected into VACUTAINER™ tubes containing EDTA-K3 as the anti-coagulant and were centrifuged at approximately 4° C. to obtain plasma. The plasma samples were stored at −20° C. until analysis by LC/MS/MS.
A bioanalytical method utilizing high performance liquid chromatography coupled to tandem mass spectrometry (LC/MS/MS) was developed for analysis of the selected compound in rat plasma. Detection was performed using multiple reaction monitoring (MRM); Ions representing the precursor (M+H)^+ species was selected in quadrupole 1 (Q1) and collided with nitrogen gas in the collision cell (Q2) to generate specific product ion, which was subsequently monitored by quadrupole 3 (Q3). Standard curve and quality control samples were prepared in male rat plasma and processed in the same way as the test samples to generate quantitative data.
Pharmacokinetic parameters were generated using non-compartmental pharmacokinetic analysis (Phoenix WinNonlin, version 6.3). Values below the lower limit of quantification (LLOQ) were assigned a value of zero if predose and treated as missing thereafter. Area under the curve (AUC) was calculated using the linear trapezoidal rule. The oral bioavailability (% F) was determined by comparison of the area under the curve (AUC) of the compound in plasma following oral administration to that generated following intravenous administration.
With `COC(=O)N[C@H](C(=O)N1C[C@]2(CCCOC2)C[C@H]1c1ncc(-c2ccc(-c3ccc4c(ccc5nc([C@@H]6CCCN6C(=O)[C@@H](NC(=O)OC)C(C)C)[nH]c54)c3)cc2)[nH]1)C(C)C` [drawing 233], the bioavailability turned out to be 7%.

The series is the same for the next values; noted with them: Sprague-Dawley, rat, plasma, male SD rats, oral gavage 20 mg/kg vs IV bolus 2 mg/kg.
As to `COC(=O)N[C@H](C(=O)N1[C@H](c2nc3ccc4cc(-c5ccc(-c6cnc([C@@H]7C[C@@]8(CCCOC8)CN7C(=O)[C@@H](NC(=O)OC)C7C[C@@H](C)O[C@H](C)C7)[nH]6)cc5)ccc4c3[nH]2)C[C@@H]2CCCC[C@@H]21)C(C)C` (stereo in doubt) [Compound 38], the bioavailability amounted to 12.4%.
On the same count and under the same terms, to `COC(=O)N[C@H](C(=O)N1C[C@]2(CCCOC2)C[C@H]1c1nc2ccc3cc(-c4ccc(-c5cnc([C@@H]6C[C@H]7C[C@H]7N6C(=O)[C@@H](NC(=O)OC)C(C)C)[nH]5)cc4)ccc3c2[nH]1)C(C)C` [Compound 5] belongs 12.2%.
Same read-out and setting: the value for `COC(=O)N[C@H](C(=O)N1C[C@]2(CCCOC2)C[C@H]1c1nc2ccc3cc(-c4ccc5c(ccc6nc([C@@H]7C[C@H]8C[C@H]8N7C(=O)[C@@H](NC(=O)OC)C(C)C)[nH]c65)c4)ccc3c2[nH]1)C(C)C` [Compound 6] was 3.5%.
On to `COC(=O)N[C@H](C(=O)N1CC2(CC2)C[C@H]1c1nc2ccc3cc(-c4ccc5c(ccc6nc([C@@H]7C[C@@]8(CCCOC8)CN7C(=O)[C@@H](NC(=O)OC)C(C)C)[nH]c65)c4)ccc3c2[nH]1)C(C)C` [Compound 7], for which the bioavailability is 2.5%.
On to `COC(=O)N[C@H](C(=O)N1CC2(CC2)C[C@H]1c1ncc(-c2ccc(-c3ccc4c(ccc5nc([C@@H]6C[C@@]7(CCCOC7)CN6C(=O)[C@@H](NC(=O)OC)C(C)C)[nH]c54)c3)cc2)[nH]1)C(C)C` [Compound 8], for which the bioavailability was 4.1%.
On the same count and under the same terms, the value for `COC(=O)N[C@H](C(=O)N1C[C@]2(CCCOC2)C[C@H]1c1nc2ccc3cc(-c4ccc5c(ccc6nc([C@@H]7C[C@@H]8CCC[C@@H]8N7C(=O)[C@@H](NC(=O)OC)C(C)C)[nH]c65)c4)ccc3c2[nH]1)C(C)C` [Compound 9] was 2.6%; that for `COC(=O)N[C@H](C(=O)N1C[C@]2(CCCOC2)C[C@H]1c1nc2ccc3cc(-c4ccc(-c5cnc([C@@H]6C[C@@H]7CCC[C@@H]7N6C(=O)[C@@H](NC(=O)OC)C(C)C)[nH]5)cc4)ccc3c2[nH]1)C(C)C` [Compound 10] was 5.7%.
As for `COC(=O)N[C@H](C(=O)N1C[C@]2(CCCOC2)C[C@H]1c1ncc(-c2ccc(-c3ccc4c(ccc5nc([C@@H]6C[C@@]7(CCCOC7)CN6C(=O)[C@@H](NC(=O)OC)C(C)C)[nH]c54)c3)cc2)[nH]1)C(C)C` [Compound 11], the bioavailability amounted to 7.1%.
Same read-out and setting: to `COC(=O)N[C@H](C(=O)N1C[C@]2(CCCOC2)C[C@H]1c1ncc(-c2ccc(-c3ccc4c(ccc5nc([C@@H]6C[C@H]7C[C@H]7N6C(=O)[C@@H](NC(=O)OC)C(C)C)[nH]c54)c3)cc2)[nH]1)C(C)C` [Compound 18] belongs 3.3%; to `COC(=O)N[C@H](C(=O)N1C[C@]2(CCCOC2)C[C@H]1c1nc2ccc3cc(-c4ccc5c(ccc6nc([C@@H]7C[C@@H]8C[C@@H]8N7C(=O)[C@@H](NC(=O)OC)C(C)C)[nH]c65)c4)ccc3c2[nH]1)C(C)C` [Compound 21], 3.4%; to `COC(=O)N[C@H](C(=O)N1C[C@]2(CCCOC2)C[C@H]1c1nc2ccc3cc(-c4ccc(-c5cnc([C@@H]6C[C@@H]7C[C@@H]7N6C(=O)[C@@H](NC(=O)OC)C(C)C)[nH]5)cc4)ccc3c2[nH]1)C(C)C` [Compound 22], 9.4%.
With `COC(=O)N[C@H](C(=O)N1C[C@]2(CCCOC2)C[C@H]1c1nc2ccc3cc(-c4ccc5c(ccc6nc([C@@H]7C[C@@H]8CCCC[C@@H]8N7C(=O)[C@@H](NC(=O)OC)C(C)C)[nH]c65)c4)ccc3c2[nH]1)C(C)C` [Compound 23], the bioavailability was 5.5%.
The same measure, in the same setting: to `COC(=O)N[C@H](C(=O)N1C[C@]2(CCCOC2)C[C@H]1c1nc2ccc3cc(-c4ccc(-c5cnc([C@@H]6C[C@@H]7CCCC[C@@H]7N6C(=O)[C@@H](NC(=O)OC)C(C)C)[nH]5)cc4)ccc3c2[nH]1)C(C)C` [Compound 24] belongs 7.9%; to `COC(=O)N[C@H](C(=O)N1C[C@]2(CCCOC2)C[C@H]1c1ncc(-c2ccc(-c3ccc4c(ccc5nc([C@@H]6CC7(CC7)CN6C(=O)[C@@H](NC(=O)OC)C(C)C)[nH]c54)c3)cc2)[nH]1)C(C)C` [Compound 28], 7.2%.
The same measure, in the same setting: the value for `COC(=O)N[C@H](C(=O)N1C[C@]2(CCCOC2)C[C@H]1c1ncc(-c2ccc(-c3ccc4c(ccc5nc([C@@H]6C[C@@H]7CCCC[C@@H]7N6C(=O)[C@@H](NC(=O)OC)C(C)C)[nH]c54)c3)cc2)[nH]1)C(C)C` [Compound 29] was 17.1%; that for `COC(=O)N[C@H](C(=O)N1C[C@]2(CCCOC2)C[C@H]1c1nc2ccc3cc(-c4ccc5c(ccc6nc([C@@H]7C[C@@]8(CCCOC8)CN7C(=O)[C@@H](NC(=O)OC)C(C)C)[nH]c65)c4)ccc3c2[nH]1)C(C)C` [Compound 31] was 3.8%; that for `COC(=O)N[C@H](C(=O)N1C[C@]2(CCCOC2)C[C@H]1c1ncc(-c2ccc(-c3ccc(-c4cnc([C@@H]5C[C@@H]6CCCC[C@@H]6N5C(=O)[C@@H](NC(=O)OC)C(C)C)[nH]4)cc3)cc2)[nH]1)C(C)C` [Compound 32] was 24.1%.
As to `COC(=O)N[C@H](C(=O)N1C[C@]2(CCCOC2)C[C@H]1c1nc2ccc3cc(-c4ccc(-c5cnc([C@@H]6C[C@@H]7COC[C@@H]7N6C(=O)[C@@H](NC(=O)OC)C(C)C)[nH]5)cc4)ccc3c2[nH]1)C(C)C` [Compound 34], the bioavailability amounted to 2.1%.
The same measure, in the same setting: the value for `COC(=O)N[C@H](C(=O)N1C[C@]2(CCCOC2)C[C@H]1c1ncc(-c2ccc(-c3ccc4c(ccc5nc([C@@H]6C[C@@H]7COC[C@@H]7N6C(=O)[C@@H](NC(=O)OC)C(C)C)[nH]c54)c3)cc2)[nH]1)C(C)C` [Compound 35] was 1.1%; that for `COC(=O)N[C@H](C(=O)N1C[C@]2(CCCOC2)C[C@H]1c1ncc(-c2ccc(-c3ccc(-c4cnc([C@@H]5C[C@@H]6CCC[C@@H]6N5C(=O)[C@@H](NC(=O)OC)C(C)C)[nH]4)cc3)cc2)[nH]1)C(C)C` [Compound 37] was 114%; that for `COC(=O)N[C@H](C(=O)N1CCC[C@H]1c1ncc(-c2ccc(-c3ccc4c(ccc5nc([C@@H]6C[C@@]7(CCCOC7)CN6C(=O)[C@@H](NC(=O)OC)C(C)C)[nH]c54)c3)cc2)[nH]1)C(C)C` [Compound 44] was 14.8%.
Turning to `COC(=O)N[C@H](C(=O)N1C[C@]2(CCCOC2)C[C@H]1c1ncc(-c2ccc(-c3ccc4c(ccc5nc([C@@H]6CCCN6C(=O)[C@@H](NC(=O)OC)C(C)C)[nH]c54)c3)cc2)[nH]1)C(C)C` [Compound 47], the bioavailability was 7%.
In the case of `COC(=O)N[C@H](C(=O)N1CCC[C@H]1c1nc2ccc3cc(-c4ccc5c(ccc6nc([C@@H]7C[C@@]8(CCCOC8)CN7C(=O)[C@@H](NC(=O)OC)C(C)C)[nH]c65)c4)ccc3c2[nH]1)C(C)C` [Compound 48], the bioavailability amounted to 1.7%.
On the same count and under the same terms, the value for `COC(=O)N[C@H](C(=O)N1CCC[C@H]1c1ncc(-c2ccc(-c3ccc4c(ccc5nc([C@@H]6C[C@]7(CCOC7)CN6C(=O)[C@@H](NC(=O)OC)C(C)C)[nH]c54)c3)cc2)[nH]1)C(C)C` [Compound 51] was 8.6%.
